Measured values reported in patent publication US20110165173A1, “THERAPEUTIC AGENT AND DETECTION REAGENT FOR ARTERIOSCLEROTIC DISEASE WHICH TARGETS FOR SALUSIN” (PROTEINEXPRESS CO., LTD., priority 2007, published 2011).

How the values were obtained:
[1] = system: ATP-binding cassette transporter A1 (ABCA-1) protein expression; assay: ABCA-1 protein expression in human monocyte-derived macrophages (Western blotting); format: cell-based; conditions: 0, 0.2, 0.4, 0.6, 0.8, or 1.0 nM during 7-day culture
Description: Monocyte-derived macrophages that had been cultured for 7 days were washed with PBS 3 times, followed by solubilization with the addition of 10% SDS (sodium dodecyl sulfate) (100 μL) to each dish. Each cell extraction solution was scooped up with a cell scraper, followed by pulverization with the use of a 1-mL TERUMO syringe and a 23-G injection needle for fragmentation (shearing). The resultant was centrifuged at 15,000 rpm for 3 minutes (Himac CF15D2 high-speed micro refrigerated centrifuge; Hitach, Ltd.). The supernatant protein concentration was assayed by the bicinchoninic acid (BCA) method (Pierce) and used as a cell extraction solution for Western blotting.
For ABCA-1 protein detection, a reaction with an anti-human ABCA-1 antibody was carried out on a transfer membrane at room temperature for 1 hour. For a primary antibody (anti-human ABCA-1 rabbit polyclonal antibody (Funakoshi Corporation)), a stock solution (5 μL) was diluted 1,000-fold with PBS-0.1% Tween 20 (5 mL), and the diluent was used. The transfer membrane was washed with PBS-0.1% Tween 20. Then, a reaction with a secondary antibody (anti-rabbit IgG antibody: anti-rabbit IgG donkey antibody conjugated with horseradish peroxidase (HRP) (GE Healthcare Bio-Science)) was carried out at room temperature for 1 hour. […]

[2] = system: ACAT-1 protein expression; assay: ACAT-1 protein expression in cultured human monocyte-derived macrophages after differentiation (Western blotting); format: cell-based; conditions: cultured 3 more days
Description: For ACAT-1 protein detection, an anti-human ACAT-1 polyclonal antibody (DM10 donated from Dr. Chang, Dartmouth Medical School) [Chang CCY et al., J Biol Chem. 1995; 270: 29532-29540] prepared by immunizing a rabbit was used as a primary antibody (final concentration: 0.5 μg/mL) for a reaction on a transfer membrane at room temperature for 1 hour. The transfer membrane was washed with PBS-0.1% Tween 20, followed by a reaction with a secondary antibody (anti-rabbit IgG antibody: anti-rabbit IgG donkey antibody conjugated with horseradish peroxidase (HRP) (GE Healthcare Bio-Science)) at room temperature for 1 hour. For a secondary antibody, a stock solution (0.5 μL) was diluted 10,000-fold with PBS-0.1% Tween 20 (5 mL), and the resultant was used. Washing was carried out with PBS-0.1% Tween 20, followed by ACAT-1 protein detection with the use of Lumi-Light Plus (PerkinElmer Life Sciences).
In each of the experiments in Examples 1 to 6, salusin-α and salusin-β were added in the phase of differentiation of cultured human monocytes into macrophages and cells obtained on Day 7 of culture were used to examine the effects of salusin-α and salusin-13. In this Example, it was examined whether salusin-α and salusin-β would have similar effects on ACAT-1 protein expression in macrophages obtained after differentiation. […]

[3] = system: macrophages of apoE-deficient mice; assay: Foaming (oxidized LDL-induced cholesterol ester accumulation) of macrophages collected from treated apoE-deficient mice; format: in vivo; conditions: 0.6 nmol/kg/h, four weeks
Description: (§1) 13-week-old male apoE-deficient mice (72 mice) were divided into the following 6 groups: (i) physiological salt saline (control); (ii) salusin-α (0.6 nmol/kg/h); (iii) salusin-β (0.6 nmol/kg/h); (iv) salusin-α (0.6 nmol/kg/h)+anti-salusin-α serum (1.4 μg/kg/h); (v) salusin-β (0.6 nmol/kg/h)+anti-salusin-β serum (1.4 μg/kg/h); and (vi) anti-salusin-β serum (1.4 μg/kg/h). The mice were subjected to continuous subcutaneous administration with the use of an osmotic mini-pump for 4 to 8 weeks. The osmotic mini-pump and the solution contained therein were changed every week.
On Day 4 after intraperitoneal administration of thioglycollate, transudatory macrophages were collected and cultured with an RPMI1640 solution containing 10% bovine fetal serum. Oxidized LDL (10 μg/mL) and [^3H] oleic acid (0.1 mM) were added to the culture solution. After 13 hours, the radioactivity of intracellularly accumulated cholesterol [^3H] oleic acid was assayed for evaluation of foaming of macrophages.

[4] = system: CD36; assay: CD36 expression by macrophages of treated apoE-deficient mice (Western blotting); format: in vivo; conditions: four weeks
Description: as §1
Macrophages were collected as in the experiment in (1), and the protein expression of the gene involved in foaming of macrophages (i.e., scavenger receptors CD36 and SR-A capable of recognizing oxidized LDL, intracellular cholesterol esterification enzyme ACAT1, and ABCA1, ABCG1, and SR-BI, which are involved in cholesterol efflux) was analyzed by Western blotting. For the internal standard of the macrophage function, β-actin expression was also examined. For quantification of the band concentration, Analyzer (ATTO Corporation, Tokyo) was used.

salusin-α: peptide (SEQ ID NO: 1) comprising 28 amino acid residues, generated by processing from preprosalusin (SGALPPAPAAPRPALRAQRAGPAGPGAK; listed as Homo sapiens)
ABCA-1 protein expression [1]: no significant changes | ACAT-1 protein expression level, percent of that of the control ([2]; 1.0 nM added on Day 7 after differentiation): 60% | foaming of macrophages due to oxidized LDL (intracellular cholesterol ester accumulation), fraction of control ([3]; P<0.05): approximately ¼ | CD36 protein expression ([4]; salusin-α 0.6 nmol/kg/h): did not influence

salusin-β: peptide (SEQ ID NO: 3) comprising 20 amino acid residues, generated by processing from preprosalusin (AIFIFIRWLLKLGHHGRAPP; listed as Homo sapiens) [reference compound]
ABCA-1 protein expression [1]: no significant changes | ACAT-1 protein expression level relative to control ([2]; 0.6 nM added on Day 7 after differentiation): 2.2 times | foaming of macrophages due to oxidized LDL relative to control ([3]; P<0.01): approximately 2 times | CD36 protein expression relative to control level ([4]; 0.6 nmol/kg/h, range given jointly for CD36, SR-A, ACAT1, P<0.05): 1.5 to 2.8 times
